In this assay the test system is M. tuberculosis H37Rv growth inhibition. Nature of the assay: Mycobacterium tuberculosis H37Rv growth inhibition, putative kinase inhibitor library, confirmatory dose response (AID 2842).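 Also: bacteria incubated one week before Alamar blue readout.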

Values after ≈ are worked out from the molar mass of the structure shown. Where only a bound is given, the exact number is not on record here.

Broadly, the IC90 is the point of the concentration-response curve where the effect stands at 90%. As for `COc1ccc(C(=O)N(CCCn2ccnc2)c2nc3c(C)ccc(C)c3s2)cc1OC`, the IC90 is 17 µg/mL (≈ 37.7 µM).
As to `CC(C)(C)c1csc(Nc2nc3c(F)cccc3s2)n1`, the IC90 was 6.52 µg/mL (≈ 21.2 µM).
Under `CC(=O)N1CCc2c(sc(NC(=O)c3ccc(C)c(C)c3)c2C(N)=O)C1` stands 3.4 µg/mL (≈ 9.15 µM); under `CCCCOc1ccc(C(=O)Nc2nnc(-c3cc(C)ccc3C)o2)cc1`, 25.4 µg/mL (≈ 69.5 µM).
On to `COC(=O)c1c(NC(=O)c2ccccc2Oc2ccccc2)sc2c1CC(C)(C)NC2(C)C`, for which the IC90 is 37.1 µg/mL (≈ 79.8 µM).
The result for `COC(=O)c1c(C)oc2ccc(OCC(=O)OC(C)C)cc12` reads 7.05 µg/mL (≈ 23 µM).
The result for `Cc1ccc(NC(=O)CC2Nc3cccc4cccc(c34)NC2=O)cc1` (stereo not given) reads 61.8 µg/mL (≈ 179 µM); that for `CCN(CC)S(=O)(=O)c1ccc(C(=O)Nc2nnc(-c3cc(Cl)ccc3Cl)o2)cc1`, 7.57 µg/mL (≈ 16.1 µM).
Under `O=C(Nc1nnc(-c2ccc(Br)cc2)o1)c1cc(Cl)ccc1Cl` stands 2.67 µg/mL (≈ 6.46 µM); under `Cc1cccc2sc(NNC(=O)c3nc4ccccc4s3)nc12`, 3.36 µg/mL (≈ 9.87 µM).
As to `CC(=O)N1CCc2c(sc(NC(=O)C(C)C)c2-c2nc3ccccc3s2)C1`, the IC90 is 13.5 µg/mL (≈ 33.7 µM).
As to `COc1ccc(Cl)c2sc(N(CCCn3ccnc3)C(=O)c3cccs3)nc12`, the IC90 is 1.72 µg/mL (≈ 3.97 µM).
`COc1cc(C=NNC(=O)Nc2cccc(Cl)c2)ccc1O`: the 90% effect concentration (IC90) was 8.5 µg/mL (≈ 26.6 µM).
The result for `Cc1c(CCC#N)c(=O)n2c([nH]c3ccccc32)c1C#N` reads 2.29 µg/mL (≈ 8.29 µM); that for `Cc1ccc(Cl)cc1N1CCN(CCn2c(C)c(C)n3c4c(=O)[nH]c(=O)n(C)c4nc23)CC1`, 49.7 µg/mL (≈ 106 µM); that for `NC(=O)c1c(NC(=O)/C=C/c2ccc([N+](=O)[O-])s2)sc2c1CCCC2`, 4.6 µg/mL (≈ 12.2 µM).
For the compound `COC(=O)c1c(NC(=O)c2ccc(C)c(C)c2)sc2c1CCN(C(C)=O)C2`, the IC90 was 48 µg/mL (≈ 124 µM).
As for `O=C(Nc1nnc(-c2cc(Cl)ccc2Cl)o1)c1cccc(Cl)c1`, the IC90 was 31.7 µg/mL (≈ 86.1 µM).
As for `COc1cccc(C(=O)Nc2nc3c(s2)CC(C)CC3)c1` (stereo not given), the 90% effect concentration (IC90) was 14.1 µg/mL (≈ 46.7 µM).
Under `Cc1ccc(C)c(-c2nnc(NC(=O)Cc3ccccc3)o2)c1` stands 18.2 µg/mL (≈ 59.4 µM); under `Cc1ccc(C)c(N2CCN(C(=O)CCCCCn3c(=O)[nH]c4ccsc4c3=O)CC2)c1`, 10.9 µg/mL (≈ 24 µM).
As to `CCCC(=O)Nc1nnc(-c2ccc(C)cc2C)o1`, the IC90 was 2.25 µg/mL (≈ 8.68 µM).
For `Cc1cc(C)c2nc(C(F)(F)F)nc(NC(C)CCc3ccccc3)c2c1` (stereo not given), the IC90 was 7.61 µg/mL (≈ 20.4 µM).
As for `CC(C)(C)c1ccc(C(=O)Nc2nnc(-c3ccccn3)o2)cc1`, the 90% effect concentration (IC90) was 8.06 µg/mL (≈ 25 µM).
The result for `COc1cccc2sc(N(CCCn3ccnc3)C(=O)c3ccc4c(c3)OCCO4)nc12` reads 6.56 µg/mL (≈ 14.6 µM).
Consider `CCOc1cc(-c2nnc(NC(=O)c3ccccc3Cl)o2)cc(OCC)c1OCC`, for which the IC90 is 1.61 µg/mL (≈ 3.73 µM).
Under `Cc1ccc(C)c(-c2nnc(NC(=O)Cc3cccc4ccccc34)o2)c1` stands 6.3 µg/mL (≈ 17.6 µM); under `O=C(/C=C/c1ccc(-c2ccccc2[N+](=O)[O-])o1)c1cccs1`, 13 µg/mL (≈ 39.9 µM); under `CC(C)N1CCc2c(sc(NC(=O)c3ccc(Oc4ccccc4)cc3)c2C(N)=O)C1`, 12.5 µg/mL (≈ 28.7 µM).
The result for `COC(=O)c1ccc(NC(=O)CSc2nc(-c3ccc(C)cc3)ns2)cc1` reads 21.3 µg/mL (≈ 53.4 µM).
As for `O=C(Nc1nnc(-c2cc(Cl)ccc2Cl)o1)c1cc(Cl)ccc1Cl`, the IC90 is 0.49 µg/mL (≈ 1.22 µM).
The result for `CCOC(=O)N1CCc2c(sc(NC(=O)c3nc4ccccc4s3)c2C(N)=O)C1` reads 3.48 µg/mL (≈ 8.08 µM); that for `Cc1nnsc1C(=O)Nc1ccc([N+](=O)[O-])cc1C(F)(F)F`, 28.1 µg/mL (≈ 84.5 µM); that for `COc1ccc(OC)c2sc(N(CCCn3ccnc3)C(=O)c3ccco3)nc12`, 6.7 µg/mL (≈ 16.2 µM).
For `Fc1ccc(Nc2nc(Nc3cccc(F)c3)nc3nccnc23)cc1`, the IC90 is 60.6 µg/mL (≈ 173 µM).
The result for `O=C(Nc1ncc(Cc2cccc(C(F)(F)F)c2)s1)c1cccs1` reads 2.92 µg/mL (≈ 7.93 µM); that for `O=C(COc1ccc2ccccc2c1)Nc1nnc2n1CCS2`, 23.6 µg/mL (≈ 72.2 µM); that for `CCS(=O)(=O)c1cccc(C(=O)Nc2nnc(-c3ccc4c(c3)CCCC4)o2)c1`, 16.3 µg/mL (≈ 39.7 µM).
The result for `CSc1ccc2nc(Nc3nc4ccc(NC(C)=O)cc4s3)sc2c1` reads under 0.2 µg/mL.
Under `N#Cc1ccc(C(=O)Nc2nnc(-c3ccc4c(c3)CCCC4)o2)cc1` stands 1.71 µg/mL (≈ 4.97 µM); under `Cc1ccc(-c2nnc(NC(=O)c3ccc(Cl)s3)o2)c(C)c1`, 2.01 µg/mL (≈ 6.02 µM).
For `Cc1ccc(Nc2nc(N3CCN(Cc4ccccc4)CC3)nc3nccnc23)cc1`, the IC90 is 7.94 µg/mL (≈ 19.3 µM).
Under `CCCC(=O)Nc1nnc(-c2ccc(Cl)s2)o1` stands 27.2 µg/mL (≈ 100 µM); under `O=C(Nc1nnc(-c2ccc(Br)cc2)o1)c1ccc(S(=O)(=O)N2CCOCC2)cc1`, 5.28 µg/mL (≈ 10.7 µM); under `Cc1cccc(Cn2cc3c(-c4ccc(C)c(C)c4)nnc-3c3cc4c(cc32)OCCO4)c1`, 3.47 µg/mL (≈ 7.97 µM).
The result for `CCC(=O)Nc1nnc(-c2ccc(C)cc2C)o1` reads under 0.2 µg/mL; that for `O=C(Nc1nnc(-c2ccc3c(c2)CCCC3)o1)c1sc2ccccc2c1Cl`, 34.5 µg/mL (≈ 84.2 µM).
Take `N#C/C(=C(\O)c1ccc2c(c1)OCCO2)c1nc2ccccc2s1`: the 90% effect concentration (IC90) was 37.7 µg/mL (≈ 112 µM).
Turning to `O=c1[nH]c(CSc2ccccc2)nc2ccccc12`, the IC90 was 7.54 µg/mL (≈ 28.1 µM).
Under `Cc1ccc(-c2nnc(NC(=O)C3CC3)o2)c(C)c1` stands 1.47 µg/mL (≈ 5.71 µM).

These data come from PubChem BioAssay AID2842 (Southern Research Institute, 2010).
